Results taken from US8980906B2, “Pyridonemorphinan analogs and biological activity on opioid receptors” (Purdue Pharma L.P., priority 2012, dated 2015).

Experiments:
[1] = target: T1, μ-opioid receptor (Homo sapiens (Human), UniProt P35372); assay: μ-opioid receptor radioligand dose-displacement binding assay ([3H]-diprenorphine); settings: binding affinity, [3H]-diprenorphine displacement; read-out: Ki (nM) Opioid Receptor μ
Protocol: μ-Opioid Receptor Binding Assay Procedures: Radioligand dose-displacement binding assays for μ-opioid receptors used 0.3 nM [^3H]-diprenorphine (Perkin Elmer, Shelton, Conn.), with […] membrane protein/well in a final volume of 500 μl binding buffer (10 mM MgCl2, 1 mM EDTA, 5% DMSO, 50 mM HEPES, pH 7.4). Reactions were carried out in the absence or presence of increasing concentrations of unlabeled naloxone. All reactions were conducted in 96-deep well polypropylene plates for 2 hours at room temperature. Binding reactions were terminated by rapid filtration onto 96-well Unifilter GF/C filter plates (Perkin Elmer, Shelton, Conn.), presoaked in 0.5% polyethylenimine using a 96-well tissue harvester (Perkin Elmer, Shelton, Conn.) followed by performing three filtration washes with 500 μl of ice-cold binding buffer. Filter plates were subsequently dried at 50° C. for 2-3 hours. BetaScint scintillation cocktail (Perkin Elmer, Shelton, Conn.) was added (50 μl/well), and plates were counted using a Packard Top-Count for 1 min/well. The data were analyzed using the one-site competition curve fitting functions in GraphPad PRISM™ v. 3.0 or higher (San Diego, Calif.), or an in-house function for one-site competition curve-fitting.

[2] = target: T2, κ-opioid receptor (Homo sapiens (Human), UniProt P41145); assay: κ-opioid receptor radioligand dose-displacement binding assay ([3H]-U69,593); settings: binding affinity, [3H]-U69,593 displacement
Protocol: κ-Opioid Receptor Binding Assay Procedures: Membranes from HEK-293 cells, CHO or U-2 OS cells expressing the recombinant human kappa opioid receptor (κ) were prepared by lysing cells in ice cold hypotonic buffer (2.5 mM MgCl2, 50 mM HEPES, pH 7.4) (10 mL/10 cm dish) followed by homogenization with a tissue grinder/Teflon pestle. Membranes were collected by centrifugation at 30,000×g for 15 min at 4° C. and pellets were resuspended in hypotonic buffer to a final concentration of 1-3 mg/mL. Protein concentrations were determined using the BioRad protein assay reagent with bovine serum albumen as standard, Aliquots of κ receptor membranes were stored at […].
Radioligand dose displacement assays used 0.4 nM [^3H]-U69,593 (GE Healthcare, Piscataway, N.J.; 40 Ci/mmole) with 15 μg membrane protein (recombinant κ opioid receptor expressed in HEK 293 cells; in-house prep) in a final volume of 200 μl binding buffer (5% DMSO, 50 mM Trizma base, pH 7.4). Non-specific binding was determined in the presence of 10 μM unlabeled naloxone or U69,593. All reactions were performed in 96-well polypropylene plates for 1 hour at a temperature of about 25° C. Binding reactions were terminated by rapid filtration onto 96-well Unifilter GF/C filter plates (Perkin Elmer, Shelton, Conn.) presoaked in 0.5% polyethylenimine (Sigma). Harvesting was performed using a 96-well tissue harvester (Perkin Elmer, Shelton, Conn.) followed by five filtration washes with 200 μl ice-cold binding buffer. Filter plates were subsequently dried at 50° C. for 1-2 hours. Fifty μl/well scintillation cocktail (Perkin Elmer, Shelton, Conn.) was added and plates were counted in a Packard Top-Count for 1 min/well.

[3] = target: T2, κ-opioid receptor; assay: κ-opioid receptor [35S]GTPγS functional assay, HEK-293 or CHO cells; type: biochemical; settings: for Emax: relative to U69,593, HEK-293 or CHO cells
Protocol: (§1) κ-Opioid Receptor Functional Assay Procedures: Functional [^35S]GTPγS binding assays were conducted as follows. κ opioid receptor membrane solution was prepared by sequentially adding final concentrations of 0.026 μg/μl κ membrane protein (in-house), 10 μg/mL saponin, 3 μM GDP and 0.20 nM [^35S]GTPγS to binding buffer (100 mM NaCl, 10 mM MgCl2, 20 mM HEPES, pH 7.4) on ice. The prepared membrane solution (190 μl/well) was transferred to 96-shallow well polypropylene plates containing 10 μl of 20× concentrated stock solutions of agonist prepared in DMSO. Plates were incubated for 30 min at a temperature of about 25° C. with shaking. Reactions were terminated by rapid filtration onto 96-well Unifilter GF/B filter plates (Perkin Elmer, Shelton, Conn.) using a 96-well tissue harvester (Packard) and followed by three filtration washes with 200 μl ice-cold binding buffer (10 mM NaH2PO4, 10 mM Na2HPO4, pH 7.4). Filter plates were subsequently dried at 50° C. for 2-3 hours. Fifty μl/well scintillation cocktail (Perkin Elmer, Shelton, Conn.) was added and plates were counted in a Packard Top-Count for 1 min/well.
(§2) κ-Opioid Receptor Functional Data: κ GTP EC50 is the concentration of a compound providing 50% of the maximal response for the compound at a κ receptor.
(§3) κ GTP Emax (%) is the maximal effect elicited by a compound relative to the effect elicited by U69,593.
In TABLE 2, activity response of certain Compounds of the Invention to the μ-, δ- and κ-opioid receptors was determined as described above for functional assays using HEK-293 or CHO cells.

[4] = target: T1, μ-opioid receptor; assay: μ-opioid receptor [35S]GTPγS functional assay, HEK-293 or CHO cells; type: biochemical; settings: for Emax: relative to DAMGO, HEK-293 or CHO cells
[5] = target: T2, κ-opioid receptor; assay: κ-opioid receptor [35S]GTPγS functional assay, U-2 OS cells; type: biochemical
Protocol: as §1, §2, §3
(§4) The following TABLE 3 provides results on the activity response of certain Compounds of the Invention at the μ- and κ-opioid receptors determined as described above using U-2 OS cells.

[6] = target: T1, μ-opioid receptor; assay: μ-opioid receptor [35S]GTPγS functional assay, U-2 OS cells; type: biochemical
Protocol: μ-Opioid Receptor Functional Assay Procedures: [^35S]GTPγS functional assays were conducted using freshly thawed μ-receptor membranes prepared in-house from a cell line expressing recombinant μ opioid receptor in a HEK-293, CHO or U-2 OS cell background, or purchased from a commercial source (Perkin Elmer, Shelton, Conn.; or DiscovRx, Fremont, Calif.). Assay reactions were prepared by sequentially adding the following reagents to binding buffer (100 mM NaCl, 10 mM MgCl2, 20 mM HEPES, pH 7.4) on ice (final concentrations indicated): membrane protein (0.026 mg/mL), saponin ([…]), GDP ([…]) and [^35S]GTPγS (0.20 nM; Perkin Elmer, Shelton, Conn.). The prepared membrane solution (190 μl/well) was transferred to 96-shallow well polypropylene plates containing 10 μl of 20× concentrated stock solutions of the agonist [D-Ala^2, N-methyl-Phe^4 Gly-ol^5]-enkephalin (DAMGO) prepared in dimethyl sulfoxide (DMSO). Plates were incubated for 30 min at about 25° C. with shaking. Reactions were terminated by rapid filtration onto 96-well Unifilter GF/B filter plates (Perkin Elmer, Shelton, Conn.) using a 96-well tissue harvester (Perkin Elmer, Shelton, Conn.) followed by three filtration washes with 200 μl of ice-cold wash buffer (10 mM NaH2PO4, 10 mM Na2HPO4, pH 7.4). Filter plates were subsequently dried at 50° C. for 2-3 hours. BetaScint scintillation cocktail (Perkin Elmer, Shelton, Conn.) was added (50 μl/well) and plates were counted using a Packard Top-Count for 1 min/well. Data were analyzed using the sigmoidal dose-response curve fitting functions in GraphPad PRISM v. 3.0, or an in-house function for non-linear, sigmoidal dose-response curve-fitting.
μ-Opioid Receptor Functional Data: μ GTP EC50 is the concentration of a compound providing 50% of the maximal response for the compound at a μ-opioid receptor.
μ GTP Emax (%) is the maximal effect elicited by a compound relative to the effect elicited by DAMGO, a standard μ agonist. Generally, the μ GTP Emax (%) value measures the efficacy of a compound to treat or prevent pain or other Conditions.
as §4

Structure (SMILES) | Ki [1] [nM] | Ki [2] [nM] | EC50 [3] [nM] | Emax [3] [%] | EC50 [4] [nM] | Emax [4] [%] | EC50 [5] [µM] | Emax ([5]; relative to U69,593, U-2 OS cells) [%] | EC50 [6] [µM] | Emax ([6]; relative to DAMGO, U-2 OS cells) [%]
NC(=O)c1cc2c([nH]c1=O)C[C@]13CCN(CC4CC4)[C@H](Cc4ccc(O)cc41)[C@@H]3C2 [Compound 7, (6R,6aR,12aS)-15-(cyclopropylmethyl)-2-hydroxy-10-oxo-6,6a,7,10,11,12-hexahydro-5H-6,12a-(epiminoethano)naphtho[2,1-g]quinoline-9-carboxamide] | 4.55 ± 1.26 | 0.19 ± 0.04 | 33.9 ± 3.73 | 31.3 ± 3.18 | > 20000 | – | – | – | – | –
NC(=O)[C@H](Cc1ccccc1)NC(=O)c1cc2c([nH]c1=O)C[C@]13CCN(CC4CC4)[C@H](Cc4ccc(O)cc41)[C@@H]3C2 [Compound 23, (6R,6aR,12aS)—N—((S)-1-amino-1-oxo-3-phenylpropan-2-yl)-15-(cyclopropylmethyl)-2-hydroxy-10-oxo-6,6a,7,10,11,12-hexahydro-5H-6,12a-(epiminoethano)naphtho[2,1-g]quinoline-9-carboxamide] | 1.86 ± 0.65 | 0.31 ± 0.05 | 8.35 ± 2.25 | 25.7 ± 4.18 | 3.19 ± 0.46 | 41.3 ± 5.04 | – | – | – | –
CC(C)C[C@H](NC(=O)c1cc2c([nH]c1=O)C[C@]13CCN(CC4CC4)[C@H](Cc4ccc(O)cc41)[C@@H]3C2)C(N)=O [Compound 24, (6R,6aR,12aS)—N—((S)-1-amino-4-methyl-1-oxopentan-2-yl)-15-(cyclopropylmethyl)-2-hydroxy-10-oxo-6,6a,7,10,11,12-hexahydro-5H-6,12a-(epiminoethano)naphtho[2,1-g]quinoline-9-carboxamide] | 3.95 ± 1.84 | 0.96 ± 0.1 | 2.54 ± 0.55 | 23 ± 2.04 | 5.2 ± 1.35 | 37 ± 7.02 | – | – | – | –
NC(=O)[C@@H]1CCCN1C(=O)c1cc2c([nH]c1=O)C[C@]13CCN(CC4CC4)[C@H](Cc4ccc(O)cc41)[C@@H]3C2 [Compound 25, (S)-1-((6R,6aR,12aS)-15-(cyclopropylmethyl)-2-hydroxy-10-oxo-6,6a,7,10,11,12-hexahydro-5H-6,12a-(epiminoethano)naphtho[2,1-g]quinoline-9-carbonyl)pyrrolidine-2-carboxamide] | 0.41 ± 0.05 | 0.32 ± 0.06 | 4.42 ± 0.85 | 44.7 ± 2.73 | 4.87 ± 0.52 | 29.3 ± 1.45 | – | – | – | –
NC(=O)C[C@H](NC(=O)c1cc2c([nH]c1=O)C[C@]13CCN(CC4CC4)[C@H](Cc4ccc(O)cc41)[C@@H]3C2)C(N)=O [Compound 26] | 0.71 ± 0.11 | 0.86 ± 0.23 | 8.87 ± 1.35 | 39 ± 2.08 | 7.54 ± 1.97 | 38 ± 1.15 | – | – | – | –
COC(=O)c1cc2c([nH]c1=O)C[C@]13CCN(Cc4ccccc4)[C@H](Cc4ccc(OC)cc41)[C@]3(O)C2 [Compound 30, (6R,6aS,12aR)-methyl 15-benzyl-6a-hydroxy-2-methoxy-10-oxo-6,6a,7,10,11,12-hexahydro-5H-6,12a-(epiminoethano)naphtho[2,1-g]quinoline-9-carboxylate] | 3940 ± 860 | 599 ± 90 | – | – | – | – | > 20 | 1 | – | –
COc1ccc2c(c1)[C@]13CCN(Cc4ccccc4)[C@H](C2)[C@]1(O)Cc1cc(C(N)=O)c(=O)[nH]c1C3 [Compound 31, (6R,6aS,12aR)-15-benzyl-6a-hydroxy-2-methoxy-10-oxo-6,6a,7,10,11,12-hexahydro-5H-6,12a-(epiminoethano)naphtho[2,1-g]quinoline-9-carboxamide] | 5590 ± 696 | 1580 ± 308 | – | – | – | – | – | – | > 20 | 10.7 ± 5.21
